Data as given in article PMC5365654, “Cyclic Boronates Inhibit All Classes of β-Lactamases” (Antimicrobial Agents and Chemotherapy, 2017).
Read-outs that look alike come from different tables or passages of the source.

Experiments:
BcII = BcII (Bacillus cereus, UniProt P04190); assay: FC5 fluorogenic metallo-β-lactamase inhibition assay, BcII; format: biochemical; settings: FC5 substrate
Excerpt: (§1) To investigate the extent to which cyclic boronates inhibit class C β-lactamases as well as the important class A ESBL and class D carbapenemase targets, we used a fluorogenic assay ([22]) to screen the cyclic boronates, which we have found to inhibit other β-lactamases ([21]), against them. The β-lactamases used for screening included TEM-1 and CTX-M-15 (class A), the metallo-β-lactamase (MBL) from Bacillus cereus (BcII), Verona integron-encoded metallo-β-lactamase 1 (VIM-1) (class B), AmpC from P. aeruginosa (class C), and OXA-23 and OXA-48 (class D), collectively representing all classes of β-lactamase.
(§2) We also screened the cyclic boronates against the model MBL, BcII, and VIM-1 using the FC5-based fluorogenic assay ([22]).
(§3) Inhibition assays were carried out using FC5 as a fluorogenic reporter substrate ([22]). Enzyme concentrations and buffers were the same as those employed in steady-state kinetic studies (see Table S2 in the supplemental material). […] The concentration of FC5 employed was 10 μM for TEM-1 and 5 μM for all other enzymes. […] Data at 0 min of incubation were obtained by addition of enzyme to a premixed solution of inhibitor and substrate. Residual enzyme activity was determined for a range of inhibitor concentrations. Nonlinear regression fitting of IC50 curves was carried out using a three-parameter dose-response curve in GraphPad Prism. Errors in IC50 are expressed as [σ(log IC50)/log IC50)] × IC50.
(§4) 45 Steady-state kinetics studies used a Pherastar FS microplate reader with UV-STAR® 96-well,
(§5) 47 black, µclear® plates (Greiner Bio-One) for FC5 (1). […]
(§6) 51 1 µM ZnSO4, 0.01% Triton X-100 for MBL assays. Reaction progress was monitored at 298 K
(§7) 53 intensity (λex = 380 nm, λem = 480 nm) for FC5 (1). Suitable enzyme concentrations for
(§8) 54 kinetic analysis were determined by monitoring changes in absorbance/fluorescence for
(§9) 55 enzyme concentrations between 20 nM and 20 pM. […]

VIM-1 = target: T1, VIM-1 (Pseudomonas aeruginosa, UniProt A0A0F7KYQ8); assay: FC5 fluorogenic metallo-β-lactamase inhibition assay, VIM-1; format: biochemical; settings: pH 7.5, FC5 substrate, read-out: IC50, μM (mean ± SD) for VIM-1, pH 7.5
T1 construct: His tag (3C-cleavable) (C, cleaved yes); made in house
Excerpt: as §1, §2, §3, §4, §5, §6, §7, §8, §9

CTX-M-15 [1] = target: T2, CTX-M-15 (Escherichia coli, UniProt Q9EXV5); assay: FC5 fluorogenic β-lactamase inhibition assay, CTX-M-15; format: biochemical; settings: FC5 substrate
T2 construct: hexahistidine (pOPINF, 3C-cleavable) (N, cleaved yes); made in house; host or cells: E. coli BL21(DE3)
T2 sequence (Q9EXV5 entry or part of it): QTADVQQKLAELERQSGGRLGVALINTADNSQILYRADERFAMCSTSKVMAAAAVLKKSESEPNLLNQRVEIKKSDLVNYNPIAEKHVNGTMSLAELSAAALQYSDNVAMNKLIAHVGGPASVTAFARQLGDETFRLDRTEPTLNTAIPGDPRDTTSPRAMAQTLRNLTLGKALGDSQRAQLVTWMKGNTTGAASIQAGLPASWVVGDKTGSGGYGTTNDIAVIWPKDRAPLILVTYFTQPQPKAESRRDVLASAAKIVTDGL
Excerpt: as §1, §3, §4
(§10) 47 black, µclear® plates (Greiner Bio-One) for FC5 (1). Buffers employed were 100 mM
(§11) 48 phosphate buffer pH 7.5, 0.01% (v/v) Triton X-100 for TEM-1, CTX-M-15 and AmpC, 100 mM
(§12) 49 phosphate buffer pH 7.5, 50 mM sodium bicarbonate, 0.01% Triton X-100 for OXA-23 and
as §6, §7, §8
(§13) 55 enzyme concentrations between 20 nM and 20 pM.
(§14) Kinetic constants were determined using the initial rate of hydrolysis with the
(§15) 57 reaction initiated through the addition of enzyme to pre-prepared substrate concentrations.
(§16) 58 Substrate concentrations ranged between 400 µM and 0.4 µM. The Michaelis-Menten
(§17) 59 equation was fitted to data by non-linear regression using GraphPad Prism software to
(§18) 60 calculate the Michaelis-Menten constant and the limiting rate (2).

AmpC from P. aeruginosa = target: T3, AmpC from P. aeruginosa (Pseudomonas aeruginosa, UniProt P24735); assay: FC5 fluorogenic β-lactamase inhibition assay, AmpC; format: biochemical; settings: IC50, nM (mean ± SD) for AmpC, FC5 substrate
T3 construct: hexahistidine (pOPINF, 3C-cleavable) (N, cleaved yes); made in house; host or cells: E. coli BL21(DE3)
T3 sequence (P24735 27-397): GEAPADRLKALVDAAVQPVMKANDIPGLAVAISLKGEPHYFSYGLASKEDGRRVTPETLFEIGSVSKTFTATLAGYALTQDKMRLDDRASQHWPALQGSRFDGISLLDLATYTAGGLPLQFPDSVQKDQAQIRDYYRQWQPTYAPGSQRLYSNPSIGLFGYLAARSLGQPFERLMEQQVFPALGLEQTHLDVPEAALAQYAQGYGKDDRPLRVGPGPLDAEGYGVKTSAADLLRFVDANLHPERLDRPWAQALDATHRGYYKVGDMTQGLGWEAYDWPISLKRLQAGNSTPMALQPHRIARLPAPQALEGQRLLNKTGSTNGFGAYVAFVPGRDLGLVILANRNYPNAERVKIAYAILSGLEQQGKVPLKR
Excerpt: as §1, §3, §4, §10, §11, §12, §6, §7, §8, §13, §14, §15, §16, §17, §18

OXA-23 [2] = target: T4, OXA-23 (Acinetobacter baumannii, UniProt Q9L4P2); assay: FC5 fluorogenic β-lactamase inhibition assay, OXA-23; format: biochemical
T4 construct: hexahistidine (pOPINF, 3C-cleavable) (N, cleaved yes); made in house; host or cells: E. coli BL21(DE3)
T4 sequence (Q9L4P2 18-273): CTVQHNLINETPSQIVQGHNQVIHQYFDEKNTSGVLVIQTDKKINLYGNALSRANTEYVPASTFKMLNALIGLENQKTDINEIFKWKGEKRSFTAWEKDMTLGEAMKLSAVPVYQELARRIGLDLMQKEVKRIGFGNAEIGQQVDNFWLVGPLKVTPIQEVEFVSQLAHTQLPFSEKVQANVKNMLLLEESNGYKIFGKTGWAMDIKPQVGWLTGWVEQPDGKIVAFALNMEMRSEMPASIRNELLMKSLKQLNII
Excerpt: as §1, §3, §4, §10, §11, §12, §6, §7, §8, §13, §14, §15, §16, §17, §18

OXA-48 [3] = target: T5, OXA-48 (Klebsiella pneumoniae, UniProt Q6XEC0); assay: FC5 fluorogenic β-lactamase inhibition assay, OXA-48; format: biochemical
T5 construct: hexahistidine (pOPINF, 3C-cleavable) (N, cleaved yes); made in house; host or cells: E. coli BL21(DE3)
T5 sequence (Q6XEC0 23-265 limits assumed): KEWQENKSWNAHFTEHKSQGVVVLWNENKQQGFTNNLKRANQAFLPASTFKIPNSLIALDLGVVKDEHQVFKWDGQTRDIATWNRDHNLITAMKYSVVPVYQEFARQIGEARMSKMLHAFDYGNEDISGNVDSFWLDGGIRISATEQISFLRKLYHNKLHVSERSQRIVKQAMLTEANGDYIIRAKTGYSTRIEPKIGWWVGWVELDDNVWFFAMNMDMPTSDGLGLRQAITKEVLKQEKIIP
Excerpt: as §1, §3, §4, §10, §11, §12, §6, §7, §8, §13, §14, §15, §16, §17, §18

CTX-M-15 [4] = target: T2, CTX-M-15; format: biochemical, E. coli; settings: CTX-M-15-catalysed hydrolysis of the substrate
Procedure: as §4, §10, §11, §12, §6, §7, §8, §13, §14, §15, §16, §17, §18

AmpC = target: T6, AmpC (Pseudomonas aeruginosa, UniProt P24735); format: biochemical; settings: AmpC-catalysed hydrolysis of the substrate
T6 construct: hexahistidine (pOPINF, 3C-cleavable) (N, cleaved yes); made in house; host or cells: E. coli BL21(DE3)
T6 sequence (P24735 27-397): as the sequence (P24735 27-397) above
Procedure: as §4, §10, §11, §12, §6, §7, §8, §13, §14, §15, §16, §17, §18

OXA-23 [5] = target: T4, OXA-23; format: biochemical; settings: OXA-23-catalysed hydrolysis of the substrate
Procedure: as §4, §10, §11, §12, §6, §7, §8, §13, §14, §15, §16, §17, §18

OXA-48 [6] = target: T5, OXA-48; format: biochemical; settings: OXA-48-catalysed hydrolysis of the substrate
Procedure: as §4, §10, §11, §12, §6, §7, §8, §13, §14, §15, §16, §17, §18

Chain of BcII (P04190 31-257): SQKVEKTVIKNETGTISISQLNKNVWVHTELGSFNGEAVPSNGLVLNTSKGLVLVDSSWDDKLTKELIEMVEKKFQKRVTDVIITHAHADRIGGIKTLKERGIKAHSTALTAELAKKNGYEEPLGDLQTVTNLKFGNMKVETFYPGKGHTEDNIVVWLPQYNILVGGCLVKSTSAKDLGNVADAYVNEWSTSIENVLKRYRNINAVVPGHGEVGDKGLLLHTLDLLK

**Q.** For `O=C(O)C(S)c1ccccc1` (racemic) [(±)-Thiomandelic acid, thiomandelic acid], which IC50 (BcII; pH 6.5, preincubation 0 min, read-out: IC50, μM (mean ± SD) for BcII, pH 6.5) is on record?
**A.** 0.27 ± 0.06 µM

**Q.** What about the IC50 (BcII; pH 6.5, preincubation 10 min, read-out: IC50, μM (mean ± SD) for BcII, pH 6.5) of the same compound?
**A.** 0.9 ± 0.1 µM

**Q.** And the IC50 (BcII; pH 6.5, preincubation 30 min, read-out: IC50, μM (mean ± SD) for BcII, pH 6.5)?
**A.** 0.5 ± 0.1 µM

**Q.** And the IC50 (BcII; pH 6.5, preincubation 60 min, read-out: IC50, μM (mean ± SD) for BcII, pH 6.5)?
**A.** 2 ± 1 µM

**Q.** What about the IC50 (BcII; pH 6.5, preincubation 360 min, read-out: IC50, μM (mean ± SD) for BcII, pH 6.5) of the same compound?
**A.** 2 ± 1 µM

**Q.** What about the IC50 (BcII; pH 7.5, preincubation 0 min, read-out: IC50, μM (mean ± SD) for BcII, pH 7.5) of the same compound?
**A.** 0.3 ± 0.03 µM

**Q.** And the IC50 (BcII; pH 7.5, preincubation 10 min, read-out: IC50, μM (mean ± SD) for BcII, pH 7.5)?
**A.** 0.39 ± 0.05 µM

**Q.** And the IC50 (BcII; pH 7.5, preincubation 30 min, read-out: IC50, μM (mean ± SD) for BcII, pH 7.5)?
**A.** 0.33 ± 0.04 µM

**Q.** And the IC50 (BcII; pH 7.5, preincubation 60 min, read-out: IC50, μM (mean ± SD) for BcII, pH 7.5)?
**A.** 0.5 ± 0.2 µM

**Q.** What about the IC50 (BcII; pH 7.5, preincubation 360 min, read-out: IC50, μM (mean ± SD) for BcII, pH 7.5) of the same compound?
**A.** 2 ± 1 µM

**Q.** And the IC50 (VIM-1; preincubation 0 min)?
**A.** 0.38 ± 0.03 µM

**Q.** And the IC50 (VIM-1; preincubation 10 min)?
**A.** 0.45 ± 0.02 µM

**Q.** And the IC50 (VIM-1; preincubation 30 min)?
**A.** 0.8 ± 0.9 µM

**Q.** And the IC50 (VIM-1; preincubation 60 min)?
**A.** 1.4 ± 0.9 µM

**Q.** What about the IC50 (VIM-1; preincubation 360 min) of the same compound?
**A.** 2 ± 1 µM

**Q.** For `CC1(C)[C@H](C(=O)O)N2C(=O)C[C@H]2S1(=O)=O` [Sulbactam, sulbactam], which IC50 (CTX-M-15 [1]; IC50, nM (mean ± SD) for CTX-M-15, preincubation 0 min) is on record?
**A.** 44 ± 1 nM

**Q.** What about the IC50 (CTX-M-15 [1]; IC50, nM (mean ± SD) for CTX-M-15, preincubation 10 min) of the same compound?
**A.** 29 ± 1 nM

**Q.** And the IC50 (CTX-M-15 [1]; IC50, nM (mean ± SD) for CTX-M-15, preincubation 30 min)?
**A.** 28 ± 7 nM

**Q.** And the IC50 (CTX-M-15 [1]; IC50, nM (mean ± SD) for CTX-M-15, preincubation 60 min)?
**A.** 32 ± 0.3 nM

**Q.** What about the IC50 (CTX-M-15 [1]; IC50, nM (mean ± SD) for CTX-M-15, preincubation 360 min) of the same compound?
**A.** 16.6 ± 0.1 nM

**Q.** What about the IC50 (AmpC from P. aeruginosa; preincubation 0 min) of the same compound?
**A.** > 200000 nM

**Q.** What about the IC50 (AmpC from P. aeruginosa; preincubation 10 min) of the same compound?
**A.** 42000 nM

**Q.** And the IC50 (AmpC from P. aeruginosa; preincubation 30 min)?
**A.** 8600 nM

**Q.** What about the IC50 (AmpC from P. aeruginosa; preincubation 60 min) of the same compound?
**A.** 4400 nM

**Q.** What about the IC50 (AmpC from P. aeruginosa; preincubation 360 min) of the same compound?
**A.** 1000 nM

**Q.** And the IC50 (OXA-23 [2])?
**A.** > 200000 nM

**Q.** What about the IC50 (OXA-23 [2]; read-out: IC50, nM (mean ± SD) for OXA-23, preincubation 10 min, FC5 substrate) of the same compound?
**A.** > 200000 nM

**Q.** What about the IC50 (OXA-23 [2]; read-out: IC50, nM (mean ± SD) for OXA-23, preincubation 30 min, FC5 substrate) of the same compound?
**A.** > 200000 nM

**Q.** What about the IC50 (OXA-23 [2]; read-out: IC50, nM (mean ± SD) for OXA-23, preincubation 60 min, FC5 substrate) of the same compound?
**A.** > 200000 nM

**Q.** And the IC50 (OXA-23 [2]; read-out: IC50, nM (mean ± SD) for OXA-23, preincubation 360 min, FC5 substrate)?
**A.** > 200000 nM

**Q.** What about the IC50 (OXA-48 [3]) of the same compound?
**A.** > 200000 nM

**Q.** And the IC50 (OXA-48 [3]; read-out: IC50, nM (mean ± SD) for OXA-48, preincubation 10 min, FC5 substrate)?
**A.** > 200000 nM

**Q.** And the IC50 (OXA-48 [3]; read-out: IC50, nM (mean ± SD) for OXA-48, preincubation 30 min, FC5 substrate)?
**A.** > 200000 nM

**Q.** And the IC50 (OXA-48 [3]; read-out: IC50, nM (mean ± SD) for OXA-48, preincubation 60 min, FC5 substrate)?
**A.** > 200000 nM

**Q.** And the IC50 (OXA-48 [3]; read-out: IC50, nM (mean ± SD) for OXA-48, preincubation 360 min, FC5 substrate)?
**A.** > 200000 nM

**Q.** How did the Km (CTX-M-15 [4]) turn out when `O=C(Cc1ccccc1)N[C@@H]1C(=O)N2C(C(=O)O)=C(COc3ccc4ccc(=O)oc4c3)CS(=O)(=O)[C@H]12` [FC5] was run?
**A.** 170 ± 20 µM

**Q.** What about the kcat (CTX-M-15 [4]) of the same compound?
**A.** 1100 ± 100 s⁻¹

**Q.** What about the Km (AmpC) of the same compound?
**A.** 600 ± 220 µM

**Q.** What about the kcat (AmpC) of the same compound?
**A.** 500 ± 160 s⁻¹

**Q.** What about the Km (OXA-23 [5]) of the same compound?
**A.** 500 ± 130 µM

**Q.** What about the kcat (OXA-23 [5]) of the same compound?
**A.** 38 ± 7 s⁻¹

**Q.** And the Km (OXA-48 [6])?
**A.** 420 ± 50 µM

**Q.** And the kcat (OXA-48 [6])?
**A.** 28 ± 2 s⁻¹
